Experimental data reported in patent US10538497B2, “Compounds as indoleamine 2,3-dioxygenase inhibitors” (Merck Sharp & Dohme Corp., priority 2015, dated 2020).

Key:
[1] = biological target: T1, IDO1 (Homo sapiens (Human), UniProt P14902); test: IDO1 Cellular Assay in Frozen HEK293 Cells Transiently Transfected with Human IDO1; format: cell-based; settings: HEK293 cells transiently transfected with human IDO1; read-out: IDO1 HEK293 Cell Assay, IC50
Method: IDO1 Cellular Assay in Frozen HEK293 Cells Transiently Transfected with Human IDO1
HEK293 cells were cultured in complete HEK293 culture medium (90% DMEM, 10% heat-inactivated fetal bovine serum). When reaching sub-confluent, the cells were trypsinized and neutralized with complete medium. […] Flag-IDO1 plasmid was added to the cell suspension at a concentration of 100 μg/mL. The cell-plasmid solutions were transferred to the OC-400 processing assembly (Maxcyte), 400 l/unit and the units were placed in a Maxcyte instrument to carry out flow electroporation for transfection. The cells were then transferred to a sterile 24-well cell culture plate to recover for 20-30 min at 37° C. in an incubator with 5% CO2.
Frozen HEK293/IDO1 and HEK293 WT cells were thawed and transferred into HEK293 assay medium (99% complete HEK293 culture medium, 1% Pen/Strep) with 20 mL medium/vial of cells. The cells were spun down at 250 g in a table top centrifuge for 5 min and suspended in same volume of HEK293 assay medium. […] Sterile L-tryptophan were added to the cells with final concentration of 300 μM.
(§1) HEK293/IDO1 and HEK293 WT cells were dispensed to the respective wells of 384-well assay plates containing the compounds. The plates were incubated for about 28-30 h at a 37° C., 5% CO2 incubator. […] The plates were centrifuged for 1 min at 200×g. The resulting fluorescence was measured in a Spectramax plate reader (Molecular Devices) with a 400 nm excitation filter and a 510 nm emission filter.

[2] = biological target: T1, IDO1; test: IDO1 Cellular Assay in Hela Cells Stimulated with IFNγ; format: cell-based; settings: Hela cells stimulated with IFNγ 100 ng/mL; read-out: IDO1 HELA Cell Assay, IC50
Method: IDO1 Cellular Assay in Hela Cells Stimulated with IFNγ
Hela cells were cultured in complete Hela culture medium (90% EMEM, 10% heat-inactivated fetal bovine serum) and expanded to about 1×10^9 cells. The cells were then collected and frozen down at 10×10^6 cells/vial in 1 mL frozen medium (90% complete Hela culture medium, 10% DMSO)
Frozen Hela cells were thawed and transferred into Hela assay medium (99% complete Hela culture medium, 1% Pen/Strep) with 20 mL medium/vial of cells. The cells were spun down at 250 g in a table top centrifuge for 5 min and suspended in same volume of Hela assay medium. The cells were then counted and adjusted to a density of 2×10^5 cells/ml in Hela assay medium. Sterile L-tryptophan were added to the cells with final concentration of 300 uM L-tryptophan. A small aliquot (2 mL/plate) of Hela cells were set aside and were not treated with IFNγ, to serve as the Max-E control. The rest of Hela cells were added with sterile IFNγ (Cat #285-IF, R & D systems) with a final concentration of 100 ng/mL.
as §1, with “Hela cells with” for “HEK293/IDO1”, “without IFNγ” for “HEK293 WT cells”, “48 hours” for “28-30 h”

[3] = biological target: T1, IDO1; test: IDO1 Enzyme Assay; settings: HIS-tagged recombinant IDO1, 40 nM
[4] = read-out: IDO1 Enzyme Assay, IC50

T1 sequence (P14902 whole entry): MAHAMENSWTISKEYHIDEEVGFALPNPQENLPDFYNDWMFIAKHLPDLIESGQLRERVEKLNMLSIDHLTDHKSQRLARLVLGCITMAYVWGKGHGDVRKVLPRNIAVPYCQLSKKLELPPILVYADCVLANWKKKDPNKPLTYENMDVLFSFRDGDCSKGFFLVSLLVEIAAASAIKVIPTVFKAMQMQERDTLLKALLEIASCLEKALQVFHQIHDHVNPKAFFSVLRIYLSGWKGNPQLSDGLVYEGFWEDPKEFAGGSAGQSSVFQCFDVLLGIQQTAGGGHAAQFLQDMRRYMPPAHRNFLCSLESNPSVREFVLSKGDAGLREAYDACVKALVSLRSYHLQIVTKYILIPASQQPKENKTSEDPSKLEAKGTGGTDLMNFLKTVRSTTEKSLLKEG

SMILES	IC50 [1]	IC50 [2]	IC50 ([3]; IDO1 Enzyme Assay, IC50, nM)	IC50 [3, 4]
OCC(O)CSc1nonc1/C(=N/O)Nc1ccc(F)c(Br)c1 (single isomer, unassigned) [Example 63, N-(3-bromo-4-fluorophenyl)-4-[(2,3-dihydroxypropyl)sulfanyl]-N′-hydroxy-1,2,5-oxadiazole-3-carboximidamide]	53.2 nM	37.5 nM	46.1 nM	–
OCC(O)CSc1nonc1/C(=N/O)Nc1ccc(F)c(Br)c1 (single isomer, unassigned) [Example 64, N-(3-bromo-4-fluorophenyl)-4-[(2,3-dihydroxypropyl)sulfanyl]-N′-hydroxy-1,2,5-oxadiazole-3-carboximidamide]	75.9 nM	44.1 nM	49.1 nM	–
NCCSc1nonc1/C(=N/O)Nc1ccc(F)c(Br)c1 [Example 2, (Z)-2-((4-(N-(3-Bromo-4-fluorophenyl)-N′-hydroxycarbamimidoyl)-1,2,5-oxadiazol-3-yl)thio)ethan-1-aminium chloride]	216 nM	77.5 nM	–	48.1 nM
NS(=O)(=O)NCCSc1nonc1/C(=N/O)Nc1ccc(F)c(Br)c1 [Example 3, (Z)—N-(3-Bromo-4-fluorophenyl)-N′-hydroxy-4-((2-(sulfamoylamino)ethyl)thio)-1,2,5-oxadiazole-3-carboximidamide]	56.9 nM	72.4 nM	–	79.5 nM
O=P(O)(O)CCSc1nonc1/C(=N/O)Nc1ccc(F)c(Br)c1 [Example 8, (Z)-(2-((4-(N-(3-Bromo-4-fluorophenyl)-N′-hydroxycarbamimidoyl)-1,2,5-oxadiazol-3-yl)thio)ethyl)phosphonic acid]	6360 nM	7950 nM	–	107 nM
CC(C)OC(=O)OCOP(=O)(O)CCSc1nonc1/C(=N/O)Nc1ccc(F)c(Br)c1 [Example 9, (Z)-(((2-((4-(N-(3-bromo-4-fluorophenyl)-N′-hydroxycarbamimidoyl)-1,2,5-oxadiazol-3-yl)thio)ethyl)(hydroxy)phosphoryl)oxy)methyl isopropyl carbonate]	5120 nM	5060 nM	–	197 nM
CC(C)OC(=O)OCOP(=O)(CCSc1nonc1/C(=N/O)Nc1ccc(F)c(Br)c1)OCOC(=O)OC(C)C [Example 10, (Z)-(((2-((4-(N-(3-bromo-4-fluorophenyl)-N′-hydroxycarbamimidoyl)-1,2,5-oxadiazol-3-yl)thio)ethyl)phosphoryl)bis(oxy))bis(methylene) diisopropyl bis(carbonate)]	> 10000 nM	4160 nM	–	136 nM
CC(=O)NCCSc1nonc1/C(=N/O)Nc1ccc(F)c(Br)c1 [Example 11, (Z)—N-(2-((4-(N-(3-Bromo-4-fluorophenyl)-N′-hydroxycarbamimidoyl)-1,2,5-oxadiazol-3-yl)thio)ethyl)acetamide]	22.2 nM	9.3 nM	–	27.7 nM
CCOC(=O)CCSc1nonc1/C(=N/O)Nc1ccc(F)c(Br)c1 [Example 13, Ethyl (Z)-3-((4-(N-(3-bromo-4-fluorophenyl)-N′-hydroxycarbamimidoyl)-1,2,5-oxadiazol-3-yl)thio)propanoate]	4490 nM	6120 nM	–	86.1 nM
O=C(O)CSc1nonc1/C(=N/O)Nc1ccc(F)c(Br)c1 [Example 15, (Z)-2-((4-(N-(3-bromo-4-fluorophenyl)-N′-hydroxycarbamimidoyl)-1,2,5-oxadiazol-3-yl)thio)acetic acid]	> 10000 nM	> 10000 nM	–	105 nM
CC(O)CSc1nonc1/C(=N/O)Nc1ccc(F)c(Br)c1 (centres unmarked) [Example 18, (Z)-N-(3-bromo-4-fluorophenyl)-N′-hydroxy-4-((2-hydroxypropyl)thio)-1,2,5-oxadiazole-3-carboximidamide]	64.2 nM	87.9 nM	–	58.4 nM
OCCCSc1nonc1/C(=N/O)Nc1ccc(F)c(Br)c1 [Example 19, (Z)-N-(3-bromo-4-fluorophenyl)-N′-hydroxy-4-((3-hydroxypropyl)thio)-1,2,5-oxadiazole-3-carboximidamide]	39.7 nM	39.7 nM	–	71.9 nM
OCCCCSc1nonc1/C(=N/O)Nc1ccc(F)c(Br)c1 [Example 20, (Z)-N-(3-bromo-4-fluorophenyl)-N′-hydroxy-4-((4-hydroxybutyl)thio)-1,2,5-oxadiazole-3-carboximidamide]	56 nM	65.3 nM	–	67.7 nM
COC(=O)C1(Sc2nonc2/C(=N/O)Nc2ccc(F)c(Br)c2)CCC1 [Example 21, Methyl (Z)-1-((4-(N-(3-bromo-4-fluorophenyl)-N′-hydroxycarbamimidoyl)-1,2,5-oxadiazol-3-yl)thio)cyclobutane-1-carboxylate]	524 nM	242 nM	–	–
CCCSc1nonc1/C(=N/O)Nc1ccc(F)c(Br)c1 [Example 23, (Z)-N-(3-bromo-4-fluorophenyl)-N′-hydroxy-4-(propylthio)-1,2,5-oxadiazole-3-carboximidamide]	263 nM	154 nM	–	187 nM
CCSc1nonc1/C(=N/O)Nc1ccc(F)c(Br)c1 [Example 24, (Z)-N-(3-bromo-4-fluorophenyl)-4-(ethylthio)-N′-hydroxy-1,2,5-oxadiazole-3-carboximidamide]	133 nM	62.8 nM	–	154 nM
O/N=C(\Nc1ccc(F)c(Br)c1)c1nonc1SCC1CNC1 [Example 25, (Z)-4-((azetidin-3-ylmethyl)thio)-N-(3-bromo-4-fluorophenyl)-N′-hydroxy-1,2,5-oxadiazole-3-carboximidamide]	152 nM	150 nM	–	92.2 nM
O/N=C(\Nc1ccc(F)c(Br)c1)c1nonc1SC1CNC1 [Example 26, (Z)-4-(azetidin-3-ylthio)-N-(3-bromo-4-fluorophenyl)-N′-hydroxy-1,2,5-oxadiazole-3-carboximidamide]	174 nM	104 nM	–	74.8 nM
O=c1[nH]nc(CSc2nonc2/C(=N/O)Nc2ccc(F)c(Br)c2)[nH]1 [Example 34, N-(3-bromo-4-fluorophenyl)-N′-hydroxy-4-(((5-oxo-4,5-dihydro-1H-1,2,4-triazol-3-yl)methyl)thio)-1,2,5-oxadiazole-3-carboximidamide]	188 nM	40.2 nM	–	64.9 nM
CNC(=O)C1(CSc2nonc2/C(=N/O)Nc2ccc(F)c(Br)c2)CC1 [Example 69, 1-[({4-[N-(3-bromo-4-fluorophenyl)-N′-hydroxycarbamimidoyl]-1,2,5-oxadiazol-3-yl}sulfanyl)methyl]-N-methylcyclopropanecarboxamide]	103 nM	90.8 nM	–	–
O=c1c(NCCSc2nsnc2/C(=N/O)Nc2ccc(F)c(Br)c2)c(NCC2CC2)c1=O [Example 210, N-(3-bromo-4-fluorophenyl)-4-{[2-({2-[(cyclopropylmethyl)amino]-3,4-dioxocyclobut-1-en-1-yl}amino)ethyl]sulfanyl}-N′-hydroxy-1,2,5-thiadiazole-3-carboximidamide]	1410 nM	–	–	166 nM
O=c1c(NCCSc2nsnc2/C(=N/O)Nc2ccc(F)c(Br)c2)c(NC2CC2)c1=O [Example 211, N-(3-bromo-4-fluorophenyl)-4-[(2-{[2-(cyclopropylamino)-3,4-dioxocyclobut-1-en-1-yl]amino}ethyl)sulfanyl]-N′-hydroxy-1,2,5-thiadiazole-3-carboximidamide]	1320 nM	–	–	297 nM
